Measured values from patent US4490363A, “Metorphamide--a novel morphine-like peptide” (Board of Trustees of The Leland Stanford Junior University …, priority 1983, dated 1984).
Read-outs that look alike come from different tables or passages of the source. Peptide text beside a SMILES is read from it.

Key:
carboxypeptidase A = target: T1, carboxypeptidase A (Bos taurus, UniProt P00730); assay: Carboxypeptidase A digestion of bovine metorphamide and dynorphin; assay type: in vitro ADME; details: 400 ng enzyme, 37° C., pH 7.5
T1 construct: purchased Sigma (printed as σ) type 1-DFP
T1 sequence (P00730 111-419): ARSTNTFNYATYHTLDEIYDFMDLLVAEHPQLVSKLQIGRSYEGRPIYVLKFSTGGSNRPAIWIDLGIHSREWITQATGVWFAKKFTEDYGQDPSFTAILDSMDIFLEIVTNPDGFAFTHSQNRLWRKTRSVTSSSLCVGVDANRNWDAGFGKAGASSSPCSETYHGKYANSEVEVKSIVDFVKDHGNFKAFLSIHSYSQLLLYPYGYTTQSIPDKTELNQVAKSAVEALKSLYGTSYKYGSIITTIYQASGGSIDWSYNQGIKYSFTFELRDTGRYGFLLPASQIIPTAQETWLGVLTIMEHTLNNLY
Procedure: A mixture of bovine metorphamide (30-35 pmol.) and synthetic dynorphin (60-70 pmol.) was dissolved in 1.6 ml. 0.02 m Tris buffer, containing 0.2 m NaCl and 0.1% Triton X-100, pH 7.5. 5 μl of a 20 mg/ml suspension of carboxypeptidase A (σ, type 1-DFP) containing 100 μg enzyme were dissolved in 1 ml. 10% LiCl. […] aliquots were withdrawn at times 1, 5, 10 and 60 minutes an equal volume of glacial acetic acid was added to each sample to terminate the enzyme reaction. After evaporation, the samples were assayed in triplicate by radioaminoassay for dynorphin and metorphamide. 0 time samples were withdrawn before enzyme was added to determine the amounts of peptides that were initially present in the incubation mixture. A separate sample of peptide mixture that received 4 μl of 10% LiCl without the enzyme was incubated at 37° C. for 60 minutes and 50 μl aliquots of this sample were also assayed for metorphamide and dynorphin. This latter sample served as a control for any non-specific degradation of peptide that may have occurred by unknown factors. […] The results of the digestion are shown in FIG. 2 wherein the metorphamide is indicated by O--O and dynorphin by X--X. Bovine metorphamide was stable to carboxypeptidase A digestion for at least 60 minutes while dynorphin was completely digested by the enzyme after 5 minutes.

κ-site = target: T2, κ-site (Cavia porcellus, UniProt P41144); assay: Binding assay in guinea pig brain homogenates, [3H]-(-)-bremazocine after suppression of μ- and δ-binding
T2 construct: The assays used homogenates of guinea-pig brain; from tissue; host or cells: guinea pig brain homogenate
Procedure: (§1) [^3 H]-[D-Ala^2,MePhe^4, Gly-ol^5 ]enkephalin (1 nM) was used as μ-ligand, [^3 H]-[D-Ala^2,D-Leu^5 ]enkephalin (1 nM) as a relatively selective δ-ligand and [^3 H]-(-)-bremazocine (0.3 nM) as κ-ligand, in the presence of 100 nM each of unlabelled [D-Ala^2,MePhe^4,Gly-ol^5 ]enkephalin and [D-Ala^2,D-Leu^5 ]enkephalin for the suppression of μ- and δ-binding.
(§2) The μ- and […] of [^3 H]-(-)-bremazocine was suppressed with 100 nM each of unlabelled [D-Ala^2,MePhe^4,Gly-ol^5 ]enkephalin and [D-Ala^2,D-Leu^5 ]enkephalin.

[1] = test system: anti-serum (R1-3) to synthetic metorphamide; assay: Radioaminoassay of metorphamide: cross-reaction with anti-serum R1-3, 125I-labeled synthetic metorphamide as tracer; assay type: binding, rabbit; details: on a molar basis
Description: An anti-serum to synthetic metorphamide was generated in male New Zealand white rabbits by injecting synthetic peptide linked to bovine thyroglobulin by carbodiimide according the method of Weber et al., J. Neurochem., 38, 436-447 (1982). The resulting anti-serum (R1-3) was used in a radioaminoassay using ^125 I labeled synthetic metorphamide as a tracer. The procedure used was as described by Weber et al. with modifications described by Weber et al., Nature, 299, 77-79 (1982). The metorphamide or radioaminoassay requires the carboxylterminal amide group as part of the recognition site. On a molar basis the free carboxy derivative of metorphamide cross reacts with less than 1.02% and the analog of metorphamide in which the carboxyterminal amide was substituted by a Glycine residue cross reacts at less than 0.3%. The adrenal medulla opioid peptides Bam-22 and Bam-12 (Mizuno et al., Biochem. Biophys. Res. Commun., 95, 1482-1488 (1980); Mizuno et al., Biochem. Biophys. Res. Commun., 97, 1283-1290 (1980)) which are carboxyterminal extensions of metorphamide both cross react less than 0.006% in the radioaminoassay.

μ-site = assay: Binding assay in guinea pig brain homogenates, μ-ligand [3H]-[D-Ala2,MePhe4,Gly-ol5]enkephalin; details: for Ki: guinea-pig brain homogenates, 150 minutes at 0° C., mean ±SEM, read-out: KI, [3H]-[DAla2,MePhe4,Gly-ol5]enkephalin (μ-site)
Procedure: as §1, §2

Rat vas deferens [2] = assay: Opioid bioassay, rat vas deferens; assay type: cell-based; details: peptidases inhibited by bestatin (30 μM), L-leucyl-L-leucine, thiorphan, captopril
Procedure: (§3) Bioassays were performed using preparations of the myenteric plexus-longitudinal muscle of the guinea pig and the vasa deferentia of the mouse, rabbit and rat. According to the procedures described by McKnight et al., Eur. J. Pharmacol., 86, 393-402 (1983) and Corbett et al., Nature, 299, 79-81 (1982). The drugs were prepared as 1 mg/ml stock solutions in water and dilutions were made in Krebs solution. The bioassays were performed on [Met 5] enkephalin and C-terminally extended Met 5 enkephalins, and compared with metorphamide.
(§4) The values shown are the mean±SEM of 4 observations and of 6 for [Met^5 ]enkephalyl-Arg-Arg-Val-Gly. The activity of the peptidases was inhibited by bestatin (10 μM, or 30 μM in the rat and rabbit), L-leucyl-L-leucine ([…]), thiorphan (0.3 μM) and captopril (10 μM).

δ-site = assay type: binding, guinea pig; details: for Ki: guinea-pig brain homogenates, 150 minutes at 0° C., mean ±SEM, read-out: KI, [3H]-[DAla2,D-Leu5]enkephalin (δ-site)
Procedure: as §1, §2

Rabbit vas deferens = assay: Opioid bioassay, rabbit vas deferens; assay type: cell-based; details: mean±SEM; peptidases inhibited by bestatin (30 μM), L-leucyl-L-leucine, thiorphan, captopril
Procedure: as §3, §4

Mouse vas deferens [3] = assay: Opioid bioassay, mouse vas deferens; assay type: cell-based; details: mean±SEM; peptidases inhibited by bestatin, L-leucyl-L-leucine, thiorphan, captopril
Procedure: as §3, §4

[4] = test system: myenteric plexus-longitudinal muscle of the guinea pig; assay: Opioid bioassay, guinea-pig myenteric plexus-longitudinal muscle; assay type: cell-based; details: mean±SEM; peptidases inhibited by bestatin, L-leucyl-L-leucine, thiorphan, captopril
Procedure: as §3, §4

Mouse vas deferens [5] = details: values marked ** (from literature); cited from earlier work
[6] = test system: myenteric plexus-longitudinal muscle of the guinea pig; details: values marked ** (from literature); cited from earlier work
Rat vas deferens [7] = details: values marked ** (from literature); cited from earlier work
[8] = at KD concentrations of the tritiated ligands, total binding=1

T2 sequence (P41144 whole entry): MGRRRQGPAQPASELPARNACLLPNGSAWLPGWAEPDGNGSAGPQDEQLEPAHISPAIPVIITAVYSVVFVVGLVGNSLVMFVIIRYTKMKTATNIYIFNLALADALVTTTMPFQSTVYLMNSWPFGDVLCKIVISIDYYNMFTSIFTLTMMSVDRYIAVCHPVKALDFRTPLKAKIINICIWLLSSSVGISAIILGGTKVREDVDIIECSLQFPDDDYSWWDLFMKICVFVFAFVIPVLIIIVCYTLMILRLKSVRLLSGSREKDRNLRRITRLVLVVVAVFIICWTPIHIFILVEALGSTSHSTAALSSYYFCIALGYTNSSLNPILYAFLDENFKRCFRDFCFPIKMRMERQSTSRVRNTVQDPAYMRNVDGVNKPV

| Compound | Ki (κ-site) [nM] | Ki (μ-site) [nM] | IC50 (Rat vas deferens [2]) [nM] | Ki (δ-site) [nM] | IC50 (Rabbit vas deferens) [nM] | IC50 (Mouse vas deferens [3]) [nM] | IC50 [4] [nM] | other results |
| --- | --- | --- | --- | --- | --- | --- | --- | --- |
| CC[C@H](C)[C@H](NC(=O)[C@H](CCCNC(=N)N)NC(=O)[C@H](CCCNC(=N)N)NC(=O)[C@H](CC(C)C)NC(=O)[C@H](Cc1ccccc1)NC(=O)CNC(=O)CNC(=O)[C@@H](N)Cc1ccc(O)cc1)C(=O)N[C@@H](CCCNC(=N)N)C(=O)N1CCC[C@H]1C(=O)N[C@@H](CCCCN)C(=O)N[C@@H](CC(C)C)C(=O)N[C@@H](CCCCN)C(=O)N[C@@H](Cc1c[nH]c2ccccc12)C(=O)N[C@@H](CC(=O)O)C(=O)N[C@@H](CC(N)=O)C(=O)N[C@@H](CCC(N)=O)C(=O)O [dynorphin] | – | – | – | – | – | – | – | time after which completely digested by carboxypeptidase A (carboxypeptidase A): 5 min |
| CSCC[C@H](NC(=O)[C@H](Cc1ccccc1)NC(=O)CNC(=O)CNC(=O)[C@@H](N)Cc1ccc(O)cc1)C(=O)N[C@@H](CCCNC(=N)N)C(=O)N[C@@H](CCCNC(=N)N)C(=O)O [C, [Met^5]enkephalylArg-Arg] | 11.2 ± 1.8 | – | – | – | – | – | – | – |
| CSCC[C@H](NC(=O)[C@H](Cc1ccccc1)NC(=O)CNC(=O)CNC(=O)[C@@H](N)Cc1ccc(O)cc1)C(=O)N[C@@H](CCCNC(=N)N)C(=O)N[C@@H](CCCNC(=N)N)C(=O)N[C@H](C(=O)O)C(C)C [D, [Met^5 ]enkephalylArg-Arg-Val] | 2.11 ± 0.29 | – | – | – | – | – | – | – |
| CSCC[C@H](NC(=O)[C@H](Cc1ccccc1)NC(=O)CNC(=O)CNC(=O)[C@@H](N)Cc1ccc(O)cc1)C(=O)N[C@@H](CCCNC(=N)N)C(=O)N[C@@H](CCCNC(=N)N)C(=O)N[C@H](C(=O)NCC(=O)O)C(C)C [E] (H-YGGFMRRVG-OH; N-terminus and C-terminus assumed) | – | 1.39 ± 0.23 | > 3000 | 8.58 ± 1.54 | 54.7 ± 11 | 21.4 ± 3.1 | 6.62 ± 0.8 | cross reaction in the metorphamide radioaminoassay [1]: less than 0.3% |
| CSCC[C@H](NC(=O)[C@H](Cc1ccccc1)NC(=O)CNC(=O)CNC(=O)[C@@H](N)Cc1ccc(O)cc1)C(=O)N[C@@H](CCCNC(=N)N)C(=O)N[C@@H](CCCNC(=N)N)C(=O)N[C@H](C(N)=O)C(C)C [F] | – | 0.115 ± 0.019 | > 3000 | 2.65 ± 0.23 | 41.2 ± 4.9 | 6.2 ± 1.1 | 2.46 ± 0.34 | relative potency (relative affinity) at the μ-site (μ-site; [8]): 0.66; activity for the μ-binding site relative to that of morphine (μ-site; ratio of relative affinities): approximately 2/3; relative potency (relative affinity) at the δ-site (δ-site; [8]): 0.03; relative potency (relative affinity) at the κ-site (κ-site; [8]): 0.31; time stable to carboxypeptidase A digestion (carboxypeptidase A): at least 60 minutes |
| CSCC[C@H](NC(=O)[C@H](Cc1ccccc1)NC(=O)CNC(=O)CNC(=O)[C@@H](N)Cc1ccc(O)cc1)C(=O)O [A, [Met^5]enkephalin] | – | 9.5 ± 0.54 | – | 0.91 ± 0.07 | > 10000 | – | – | IC50 (Mouse vas deferens [5]): 1.45 nM; IC50 [6]: 6.7 nM; IC50 (Rat vas deferens [7]): 260 nM |
